In general, Tmax refers to the time at which the peak concentration occurs. The Aqueous solubility is the dissolved amount per volume that the medium holds.

Read-outs that look alike come from different tables or passages of the source.

The format of data set [1] is in vivo, Sprague-Dawley rats.
The conditions of data set [2]: cited from earlier work.
For data set [3] the following is noted: cited from earlier work. This is another data set of the same source.
The conditions of data set [4]: human studies; cited from earlier work.
The conditions of data set [5]: cited from earlier work. This is another data set of the same source.
The conditions of data set [6]: cited from earlier work. The source holds these as a separate data set.

As to `O=C(O)CCC(=O)Nc1ccccc1` [4-anilino-4-oxobutanoic acid], the “Time up to which the metabolite could be detected in rat serum” value in data set [1] (after i.v. (10 mg/kg) and oral (50 mg/kg) vorinostat) is “up to 12 h”. The “Detection of metabolite in urine” value in data set [1] (rats, after i.v. and oral vorinostat) is given as “detected”.
For the compound `O=C(CCCCCCC(=O)Nc1ccccc1)NO` [Vorinostat, suberoylanilide hydroxamic acid], the Elimination half-life result in data set [2] (animal studies) and in data set [4] was “approximately 2 hours” in each case. The Oral bioavailability in data set [2] (rats, oral 10 mg/kg) is 11%. Further, the Tmax in data set [2] (rats, oral 10 mg/kg) was 18 ± 6 min. Moreover, in data set [3], the Log partition coefficient was 1.9. Further, in data set [5], the Aqueous solubility is 200 µg/mL. Further, in data set [6], the “Biopharmaceutics Classification System (BCS) class” value is “Class IV”.

The record behind these values is PMC4699555 (Journal of pharmaceutical sciences, 2012).
